The test system of data set [1] is RAW264.7. Kind of data set: Antiinflammatory activity in mouse RAW264.7 cells assessed as inhibition of LPS-stimulated nitric oxide production treated for 1 hr before LPS challenge measured after 24 hrs by Griess reagent method. Format: functional, cell-based. Background: Griess reagent forms a coloured azo dye with nitrite.
The test system of data set [2] is RAW264.7. Kind of data set: Growth inhibition of mouse RAW264.7 cells at 10 ug/ml after 48 hrs by trypan blue exclusion assay. Format: cell-based. The conditions noted are these: raw264.7, 48 h.
For data set [3], the system named is RAW264.7. The experiment in a line: Cytotoxicity against mouse RAW264.7 cells assessed as reduction of cell viability at 30 ug/ml after 48 hrs by trypan blue exclusion assay. The data set is classed as cell-based. To be noted: raw264.7, 48 h.
For data set [4], the system named is RAW264.7. Kind of data set: Inhibition of NF-kappaB transcriptional activity in LPS-stimulated mouse RAW264.7 cells treated for 1 hr before LPS challenge measured after 6 hrs by luciferase reporter gene assay. Format: cell-based. A general note: Reporter assays use an easily measured gene product as a stand-in for the process of interest.
For data set [5], the system named is RAW264.7. The experiment in a line: Antiinflammatory activity in mouse RAW264.7 cells assessed as inhibition of LPS-stimulated nitric oxide production at 10 ug/ml treated for 1 hr before LPS challenge measured after 24 hrs by Griess reagent method. Format: functional, cell-based.
Data set [6] concerns RAW264.7. Kind of data set: Antiinflammatory activity in mouse RAW264.7 cells assessed as inhibition of LPS-stimulated iNOS expression treated for 1 hr before LPS challenge measured after 24 hrs by immunoblotting. Format: functional, cell-based.
A short description of data set [7]: Antioxidant activity assessed as peroxynitrite radical scavenging activity. Format: functional.
For data set [8], the system named is Radical scavenging activity. The experiment in a line: Antioxidant activity assessed as DPPH radical scavenging activity. Format: functional.

The values that follow come from ChEMBL document CHEMBL1155966, “Efficient synthesis of (+/-)-parasitenone, a novel inhibitor of NF-kappaB” (Bioorg Med Chem Lett, 2009).

Structures are written as SMILES. pIC50: −log10 of the molar value. Calls of active or inactive are those of the source. No cut-off for these calls is given here.

For the compound `O=C1C=C(CO)[C@H](O)[C@@H]2O[C@H]12` [PARASITENONE], the Activity result is “Dose-dependent effect” in the data set with RAW264.7 [1], “Active” in the data set with RAW264.7 [2], “Active” in the data set with RAW264.7 [3] and “Dose-dependent effect” in the data set with RAW264.7 [6]. Also, the result in the data set with RAW264.7 [4] and in the data set with RAW264.7 [5] was Active.

In the case of `O=C(O)c1ccccc1O`, the result in the data set on RAW264.7 [5] was inactive.

With `O=C(NC1=CC(=O)[C@H]2O[C@H]2[C@H]1O)c1ccccc1O` [DEHYDROXYMETHYLEPOXYQUINOMICIN], the pIC50 (as a rule, −log10 of the IC50, conventionally taken in molar units) in data set [7] is 4.28; in data set [8], 4.24. The result with RAW264.7 [4] was Active.
